Measurements from PubChem BioAssay AID192 (DTP/NCI, 2004).
“And” between values parts separate entries of the source, which are not always exact repeats. Equal values may be shown once. Inconclusive results and toxic doses are left out.

Test system: BDF1 mice, B16 melanoma ip, median survival T/C
Assay: NCI In Vivo Anticancer Drug Screen. Data for tumor model B16 Melanoma (intraperitoneal) in B6D2F1 (BDF1) mice
Details: endpoint: median survival time, schedule: Q01DX009 (ip), higher = longer survival
Method in brief: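 Vehicle-treated animals serve as the reference (C); treated animals (T) are scored for survival or tumor size after tumor transplantation.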

[1] = dose: 100.0 mg/kg/injection, vehicle: saline with Tween-80
[2] = dose: 200.0 mg/kg/injection, vehicle: saline with Tween-80
[3] = dose: 400.0 mg/kg/injection, vehicle: saline with Tween-80

Question: Which results are given for `COC1(OC)C2C=CC1CC2`?
Answer: T/C (dose: 50.0 mg/kg/injection, vehicle: saline with Tween-80): 97 % of control; T/C [1]: 97 % of control; T/C [2]: 90 % of control; T/C [3]: 96 % of control

Question: `CCOc1ccc(NC(=O)Nc2ccccc2)cc1` was tested. Which T/C [1] did it give?
Answer: 86 % of control

Question: `CCCCCCCCCCCCCC[N+](C)(C)CCCCCCCCCCCCCC` was tested. Which T/C (dose: 6.0 mg/kg/injection, vehicle: saline) did it give?
Answer: 88 % of control

Question: What does the source list for `Cc1c([N+](=O)[O-])cc2c(c1[N+](=O)[O-])C(C)(C)CC2(C)C`?
Answer: T/C [1]: 95 % of control; T/C [2]: 86 % of control; T/C [3]: 90 % of control

Question: `O=C(Nc1ccc(N=C=S)cc1Cl)c1cc(Cl)cc(Cl)c1O` was tested. Which T/C (dose: 6.25 mg/kg/injection, vehicle: Klucel (hydroxypropylcellulose) (HPC)) did it give?
Answer: 104 % of control

Question: And the T/C (dose: 12.5 mg/kg/injection, vehicle: Klucel (hydroxypropylcellulose) (HPC))?
Answer: 102 % of control and 111 % of control

Question: And the T/C (dose: 25.0 mg/kg/injection, vehicle: Klucel (hydroxypropylcellulose) (HPC))?
Answer: 110 % of control and 111 % of control

Question: What about the T/C (dose: 50.0 mg/kg/injection, vehicle: Klucel (hydroxypropylcellulose) (HPC)) of the same compound?
Answer: 108 % of control and 118 % of control

Question: How did the T/C (dose: 0.13 mg/kg/injection, vehicle: saline) turn out when `COc1ccc2c3c(c4cc(OC)c(OC)cc4c2c1)C[C@H]1CCCCN1C3` was run?
Answer: 114 % of control

Question: And the T/C (dose: 0.25 mg/kg/injection, vehicle: saline)?
Answer: 109 % of control

Question: What about the T/C (dose: 0.5 mg/kg/injection, vehicle: saline) of the same compound?
Answer: 104 % of control

Question: How did the T/C (dose: 6.25 mg/kg/injection, vehicle: saline) turn out when `NC1CONC1=O` (stereo not drawn) was run?
Answer: 109 % of control

Question: What about the T/C (dose: 12.5 mg/kg/injection, vehicle: saline) of the same compound?
Answer: 88 % of control

Question: And the T/C (dose: 25.0 mg/kg/injection, vehicle: saline)?
Answer: 109 % of control

Question: What about the T/C (dose: 50.0 mg/kg/injection, vehicle: saline) of the same compound?
Answer: 102 % of control

Question: What about the T/C (dose: 100.0 mg/kg/injection, vehicle: saline) of the same compound?
Answer: 105 % of control

Question: And the T/C (dose: 200.0 mg/kg/injection, vehicle: saline)?
Answer: 100 % of control

Question: And the T/C (dose: 400.0 mg/kg/injection, vehicle: saline)?
Answer: 91 % of control

Question: Which T/C (dose: 2.5 mg/kg/injection, vehicle: saline with Tween-80) does the source give for `CC1(C)C2CCC([CH2][Hg][Cl])C1C2` (stereo not drawn) here?
Answer: 87 % of control

Question: And the T/C (dose: 5.0 mg/kg/injection, vehicle: saline with Tween-80)?
Answer: 103 % of control

Question: What about the T/C (dose: 10.0 mg/kg/injection, vehicle: saline with Tween-80) of the same compound?
Answer: 87 % of control

Question: And the T/C (dose: 20.0 mg/kg/injection, vehicle: saline with Tween-80)?
Answer: 96 % of control

Question: Which T/C (dose: 3.12 mg/kg/injection, vehicle: Klucel (hydroxypropylcellulose) (HPC)) does the source give for `C(=P(c1ccccc1)(c1ccccc1)c1ccccc1)[P+](c1ccccc1)(c1ccccc1)c1ccccc1` here?
Answer: 111 % of control

Question: And the T/C (dose: 6.25 mg/kg/injection, vehicle: suspension in saline)?
Answer: 157 % of control

Question: For `COc1cc2c(cc1OC)/C(=N/N=C1\CCCc3cc(OC)c(OC)cc31)CCC2`, which T/C (dose: 1.56 mg/kg/injection, vehicle: water) is on record?
Answer: 104 % of control

Question: And the T/C (dose: 3.13 mg/kg/injection, vehicle: water)?
Answer: 100 % of control

Question: What about the T/C (dose: 6.25 mg/kg/injection, vehicle: water) of the same compound?
Answer: 100 % of control

Question: And the T/C (dose: 12.5 mg/kg/injection, vehicle: water)?
Answer: 95 % of control
